# Values quoted from earlier work in patent publication US9884129B2, “Release of agents from cells” (The Brigham and Women s Hospital, Inc., priority 2009, dated 2018).
# Tested on: tumor
# Settings: with neural stem cells modified to produce cytosine deaminase; systemic prodrug
smiles,measurement,value
Nc1nc(=O)[nH]cc1F [5-fluorocytosine],reduction in tumor mass,80%
